Usually GI50 stands for the concentration giving 50% growth inhibition. The term TGI denotes the concentration at which net growth stops. High values mean lower sensitivity of the cells, low ones greater sensitivity of the cells.

Test systems include SNB-75 CNS; HCC-2998 colon; A549 NSCLC; SNB-19 CNS; MDA-MB-435; NCI-H226 lung; U251 CNS; HT29 colon; NCI-H460 lung; UACC-257 melanoma.
Experiment in all cases: DTP human tumour cell line panel, 48 h

“And” between values parts separate entries of the source, which are not always exact repeats. Identical values can stand only once.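 Tested at 5 concentrations; 48 h exposure; 96-well plates; endpoints linearly interpolated, else capped at highest concentration. Here, GI50 denotes the concentration required for 50% inhibition of growth. TGI denotes the concentration required for complete inhibition of growth.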

For the compound `COc1cc(CNCCCN2C(=O)c3ccc4c5c(ccc(c35)C2=O)C(=O)N(CCCNCc2cc(OC)c(OC)c(OC)c2)C4=O)cc(OC)c1OC`, the GI50 with SNB-75 CNS was 0.589 µM; in the assay with HCC-2998 colon, 0.363 µM; in the assay with A549 NSCLC, 0.305 µM; with SNB-19 CNS, 0.398 µM; with MDA-MB-435, 0.367 µM; in the assay on NCI-H226 lung it was 0.814 µM. Further, the GI50 is 0.257 µM in the assay with U251 CNS, 0.163 µM with HT29 colon, 0.316 µM in the assay on NCI-H460 lung and 0.283 µM in the assay with UACC-257 melanoma. Also, the TGI in the assay with SNB-75 CNS turned out to be 1.33 µM; in the assay with HCC-2998 colon, 0.915 µM; with A549 NSCLC it was 0.977 µM; in the assay with SNB-19 CNS, 1.25 µM; in the assay on MDA-MB-435, 1.11 µM; with NCI-H226 lung, 2 µM. Besides, the TGI in the assay on U251 CNS was 0.93 µM; with HT29 colon, 0.933 µM; with NCI-H460 lung, 1.04 µM; with UACC-257 melanoma, 0.541 µM.

Regarding `Cc1ccc(/C=C/c2c(C(=O)/C=C/c3ccc(C(F)(F)F)cc3)c(C)nc3ccccc23)cc1`, the GI50 in the assay with SNB-75 CNS is 1.23 µM; with HCC-2998 colon, 1.48 µM; in the assay on A549 NSCLC, 2.03 µM; in the assay with SNB-19 CNS, 1.55 µM; in the assay on MDA-MB-435, 1.49 µM; in the assay with NCI-H226 lung, 1.5 µM. Besides, the GI50 with U251 CNS is 1.47 µM; in the assay on HT29 colon it was 0.674 µM; with NCI-H460 lung it was 1.53 µM; in the assay with UACC-257 melanoma it was 2.15 µM. Besides, the concentration for total growth inhibition (TGI) in the assay with SNB-75 CNS was found to be 2.48 µM; with HCC-2998 colon, 2.81 µM; with A549 NSCLC, 4.76 µM; with SNB-19 CNS it was 2.88 µM; in the assay with MDA-MB-435 it was 2.89 µM; in the assay on NCI-H226 lung, 3.03 µM. Besides, the TGI in the assay with U251 CNS came out at 3.13 µM; with HT29 colon, 4.57 µM; in the assay on NCI-H460 lung, 3.22 µM; with UACC-257 melanoma, 4.95 µM.

Consider `COc1c(OC)c(OC)c(C(=O)/C=C/c2ccccc2)c(OC)c1OC`, for which the total growth inhibition concentration (TGI) in the assay with SNB-75 CNS turned out to be 23.1 µM; with HCC-2998 colon, 29.7 µM; in the assay on A549 NSCLC it was 46.2 µM; with SNB-19 CNS, 25.1 µM; in the assay with MDA-MB-435 it was 19.7 µM; in the assay on NCI-H226 lung it was 38.4 µM. Further, the TGI was determined as 20.5 µM with U251 CNS, 15.1 µM with HT29 colon, 21.9 µM in the assay with NCI-H460 lung and 34.3 µM with UACC-257 melanoma.

Consider `O=C(CC(O)(C(F)(F)F)C(F)(F)F)c1cc(CC(=O)C(O)(C(F)(F)F)C(F)(F)F)cc(CC(=O)C(O)(C(F)(F)F)C(F)(F)F)c1`, for which the TGI in the assay with SNB-75 CNS was 6.73 µM; in the assay on HCC-2998 colon, 4.19 µM; in the assay with A549 NSCLC it was 5.62 µM; in the assay with SNB-19 CNS, over 10 µM; with MDA-MB-435, over 4.25 µM; with NCI-H226 lung it was over 6.85 µM. The TGI with U251 CNS amounted to 6.4 µM; with HT29 colon, 4.28 µM; with NCI-H460 lung, 2.25 µM; with UACC-257 melanoma, 4.56 µM.

For the compound `N=c1ccn2c(n1)OC1C(O)C(CO)OC12` (stereo not drawn), the GI50 with SNB-75 CNS was over 100 µM; with HCC-2998 colon, 0.0303 µM; in the assay on A549 NSCLC it was 0.337 µM; in the assay on MDA-MB-435, 2.59 µM; in the assay with NCI-H226 lung, 120 µM and > 79 µM; in the assay on U251 CNS, 2.11 µM. In addition, the results for the GI50 with HT29 colon, in the assay on NCI-H460 lung and in the assay on UACC-257 melanoma were 6.23 µM, 0.242 µM and over 100 µM, respectively. Further, the TGI in the assay on SNB-75 CNS was over 1000 µM; in the assay with A549 NSCLC, over 1000 µM; with SNB-19 CNS, over 480 µM; in the assay with MDA-MB-435 it was over 1000 µM; in the assay on NCI-H226 lung, over 719 µM; in the assay on U251 CNS, over 1000 µM. For the same compound, the concentration for total growth inhibition (TGI) with HT29 colon was over 1000 µM; in the assay on NCI-H460 lung, 168 µM and > 100 µM; in the assay with UACC-257 melanoma, over 1000 µM.

As to `C=CC(=O)N1CCC(C2CCNc3c(C(N)=O)c(-c4ccc(Oc5ccccc5)cc4)nn32)CC1` (stereo not drawn), the GI50 in the assay on SNB-75 CNS was 8.31 µM; with HCC-2998 colon, 14.8 µM; with A549 NSCLC it was 21.2 µM; in the assay with SNB-19 CNS, 14.4 µM; in the assay with MDA-MB-435 it was 13.4 µM; in the assay on NCI-H226 lung, 11.1 µM. Besides, the GI50 is 19.7 µM in the assay with U251 CNS, 16.6 µM in the assay with HT29 colon, 31.4 µM in the assay on NCI-H460 lung and 20.3 µM in the assay on UACC-257 melanoma. In addition, the TGI in the assay with SNB-75 CNS is 38.6 µM; in the assay on HCC-2998 colon it was 28.6 µM; with A549 NSCLC, over 100 µM; in the assay on SNB-19 CNS, over 100 µM; in the assay with MDA-MB-435 it was 38 µM; in the assay on NCI-H226 lung, 69.4 µM. Further, the TGI in the assay on U251 CNS is 96.3 µM; with HT29 colon, 55.8 µM; in the assay with NCI-H460 lung it was over 100 µM; with UACC-257 melanoma it was 51.2 µM.
